Laboratory results: US6126795A, “Electroenzymatic reactor and method for enzymatic catalysis” (The United States of America as represented by the …, priority 1998, dated 2000)

Tests used:
CYP101 = CYP101 (Pseudomonas putida, UniProt P00183); test: Electrode-driven camphor hydroxylation by CYP101/Pdx in electroenzymatic reactor; assay type: biochemical
Excerpt: The proteins were then purified using ion-exchange chromatography and size exclusion chromatography. The final protein preparations were at least 95% pure. On the basis of absorbance ratios, the mole fraction purity ×100 of each subunit protein was greater than 90. In addition, several preparations of the proteins were examined by high-resolution two-dimensional gel electrophoresis and by imaging analysis, and the mole fraction purity ×100 was estimated to be greater than 97 for each protein.
The working electrodes used in the following examples were antimony-doped, tin-oxide coated (0.3 μm thickness) glass slides (4×2 cm, Delta Technologies, Stillwater, Min.), with donor concentration as determined from Mott-Schottky plots (Nd =5×10^20 cm^-3). Prior to the biocatalysis experiments, the electrodes were soaked and sonicated in 1 M NaOH for approximately two hours, then rinsed with distilled water. They were activated in 15% HCl solution using a potential sweep between -0.5 and 1.5 V at 10 mV/s, and stored in distilled water. Film electrode resistance, as measured by a four point probe (Cascade Mictrotech, Inc., Model C4A-44 Beaverton, Oreg.), was 40-50 .OMEGA./sq.
The reference electrode was a standard Ag/AgCl (3M KCl) reference micro-electrode (Abtech Inc. RE803). The counter electrode was made as a coil of 0.5 mm thick Pt wire.
The buffer media was prepared using 0.16 M aqueous KCl and 0.01 M aqueous MgCl2, adjusted to about pH 7.4 with Tris-HCl buffer.
The product, 5-exo-hydroxy-camphor, was identified by GC-MS (gas chromatography and mass spectrophotometry) and quantified by GC-FID (gas chromatography and flame ionization detection). GC injection samples of 1-2 μL were prepared from approximately equal volumes of reaction mixture and an extraction cocktail comprising 0.3 g methylene chloride and 0.02 g KCl with 300 μM n-decane as an internal standard. The GC was operated with a DB-5 column (J&W Scientific, Folsom, Calif.) (30 m) with temperature programing (2 minutes at 60° C., ramp at 10° C./min to 120° C., 2 min at 120° C., ramp up at 15° C./min 160° C.). Retention times (He carrier gas at 2.8 bar pressure) were: n-decane 4.7 minutes, camphor 7.0 minutes, 5-exo-hydroxy-camphor 10.9 minutes. […] Identification of 5-exo-hydroxy-camphor as the product was done by comparing the m/e (mass/charge ratio) pattern (VG analytical Mass Spectrometer, 70 eV electron impact energy) with published spectra; see White et al., Arch. Biochem. Biophys.228, 493-502, 1984, the disclosure of which is incorporated herein by reference.
The same cell as described in Example 1 was equipped with two antimony-doped, tin-oxide electrodes and one platinum wire counter electrode. […] Electrolysis was started by applying a potential equal to -0.7 V (vs Ag/AgCl) to the tin oxide electrodes. […] Therefore, the enzyme underwent about 20 turnovers during the four hour period.
The same cell as described in Example 1 was equipped with-one antimony-doped, tin-oxide electrode and a Pt wire counter electrode isolated by a glass frit. A Pt sheet (0.5×10×30 mm) was positioned close to the surface of the working electrode. […] Initial GC analysis indicated no trace of the product. A potential equal to -0.7 V (vs Ag/AgCl) was applied to the tin oxide electrode. The Pt sheet was left at open circuit potential. After 5 hours of electrolysis, during which the solution was stirred by a magnetic stirrer, 442 μM product (5-exo-hydroxy-camphor) was detected by GC analysis. This corresponds to 1922 turnovers of the enzyme at an average rate of 384 turnovers/hour.
An antimony-doped, tin-oxide working electrode was wrapped in a Pt grid, which was electrically isolated from the conductive side of the electrode. A Pt wire, isolated from the working electrode and Pt grid by a glass frit, was utilized as a counter electrode. […]

[1] = Pdx integrity/activity after electrolysis and redox behaviour on antimony-doped tin-oxide electrode; assay type: physicochemical
Protocol: In a 1 cm path-length spectrophotometer cell, with 30 μM Pdx in the above-specified buffer, a potential of -0.7 V (vs. Ag/AgCl) was applied using a potentiostat, and an absorption spectrum was recorded through the transparent SnO2 electrode and 1 cm of reactor solution. The electrode surface area to solution volume ratio was about 5/m. A characteristic absorption spectrum of the oxidized Pdx was recorded initially. After 30 minutes of electrolytic reduction at -0.7 V, a characteristic spectrum of reduced Pdx was recorded. After an additional 30 minutes of electrolysis, the potential was switched to 0 V and a characteristic spectrum of oxidized Pdx was obtained. After electrolysis was complete, 50% of the initial activity of Pdx was recovered, as determined by the method described in Phillips and Langdon, J. Biol. Chem., 237, 2652 (1962), the disclosure of which is incorporated herein by reference. […] The recorded current-potential dependencies were stable and reproducible throughout the 6 hour period. […] The method described in this Example can be used to determine whether the working electrode has redox activity toward the redox carrier.
An antimony-doped, tin-oxide working electrode was wrapped in a Pt grid, which was electrically isolated from the conductive side of the electrode. A Pt wire, isolated from the working electrode and Pt grid by a glass frit, was utilized as a counter electrode. […] After 15.5 hours or electrolysis at -0.65 V (vs Ag/AgCl) and room temperature with continuous stirring, the solution contained 222 μM of product (5-exo-hydroxy-camphor), which corresponds to 1127 turnovers of the enzyme.

CC12CCC(CC1=O)C2(C)C (stereo not drawn) [camphor]
Product Turnover Rate (CYP101; 12.8 μM CYP101 (no Pdx), Argon Purge, 800 μM camphor, -0.7 V, 21-22° C.): 0 nmol 5exo-hydroxy-camphor/min/
Product Turnover Rate (CYP101; 41 μM Pdx (no CYP101), Argon Purge, 800 μM camphor, -0.7 V, 21-22° C.): 0 nmol 5exo-hydroxy-camphor/min/
Product Turnover Rate (CYP101; 41 μM Pdx + 0.41 μM CYP101, Air Saturated, 800 μM camphor, -0.7 V, 21-22° C.): 0.9 nmol 5exo-hydroxy-camphor/min/
Product Turnover Rate (CYP101; 55 μM Pdx + 0.18 μM CYP101, Argon Purge, 800 μM camphor, -0.7 V, 21-22° C.): 4.2 nmol 5exo-hydroxy-camphor/min/
Product Turnover Rate (CYP101; 108 μM Pdx + 0.23 μM CYP101, Argon Purge, 800 μM camphor, -0.7 V, 21-22° C.): 6.4 nmol 5exo-hydroxy-camphor/min/
Product Turnover Rate (CYP101; 1030 μM Pdx + 0.13 μM CYP101, Argon Purge, initial camphor 2 mM, -0.7 V, 21-22° C.): 34 nmol 5exo-hydroxy-camphor/min/
Product Turnover Rate (CYP101; 1030 μM Pdx + 0.13 μM CYP101, Argon Purge, initial camphor concentration was mM, 37° C., -0.7 V): 36 nmol 5exo-hydroxy-camphor/min/
turnovers of the enzyme (CYP101; Example 2: 10 μM CYP101, 118 μM Pdx, 600 μM camphor, -0.7 V, 240 minutes, argon purge): about 20 turnovers
average rate of enzyme turnover (CYP101; Example 3: 0.23 μM CYP101, 108 μM Pdx, 626 μM camphor, -0.7 V, 5 hours): 384 turnovers/hour
turnovers of the enzyme (CYP101; Example 3: 0.23 μM CYP101, 108 μM Pdx, 626 μM camphor, -0.7 V, 5 hours, Pt sheet near working electrode): 1922 turnovers
turnovers of the enzyme (CYP101; Example 4: 0.2 μM CYP101, 101 μM Pdx, 650 μM camphor, -0.65 V, 15.5 hours, room temperature, Pt grid): 1127 turnovers

B1: Pdx: putidaredoxin, a 2Fe-2S protein, redox carrier of the CYP101 system (protein, UniProt P00259 2-107, looked up)
Putidaredoxin: SKVVYVSHDGTRRELDVADGVSLMQAAVSNGIYDIVGDCGGSASCATCHVYVNEAFTDKVPAANEREIGMLECVTAELKPNSRLCCQIIMTPELDGIVVDVPDRQW
formal potential [1]: -0.42 V vs Ag/AgCl
initial activity of Pdx recovered after electrolysis ([1]; Example 1: 30 μM Pdx, electrolysis at -0.7 V then 0 V on SnO2 electrode): 50%
Pdx remaining intact after electrolysis (% of the initial concentration) ([1]; Example 4: 101 μM initial Pdx, 15.5 hours at -0.65 V): about 85%
Pdx remaining intact after electrolysis (concentration) ([1]; Example 4: 101 μM initial Pdx, 15.5 hours at -0.65 V, spectrophotometric analysis): about 85 μM
